Source: patent US9302999B2, “Substituted triazoles as herbicides” (E. I. DU PONT DE NEMOURS AND COMPANY, priority 2012, dated 2016)

Columns and labels:
Format in all cases: in vivo
[1] = test system: goosegrass (Eleusine indica); experiment: Test F pre-/postemergence: goosegrass; conditions: Preemergence
In short: (§1)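 Preemergence treatment of seeds sown in silt loam soil, and postemergence treatment of plants 2–18 cm tall (1- to 4-leaf stage), with compounds in non-phytotoxic solvent plus surfactant. Greenhouse 14–21 days, then visual rating versus controls on 0–100 scale (100 = complete control).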

[2] = test system: deadnettle (henbit deadnettle, Lamium amplexicaule); experiment: Test D pre-/postemergence: deadnettle
In short: (§2)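 Species were sown in silt loam and sprayed preemergence, or grown in peat/vermiculite medium and sprayed postemergence at the 1- to 4-leaf stage (2–18 cm), with compounds in a surfactant-containing solvent. Injury was visually rated against untreated controls after 14–21 days, on a 0 (no effect) to 100 (complete control) scale.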

[3] = test system: pigweed, palmer (palmer pigweed, Amaranthus palmeri); experiment: Test F pre-/postemergence: pigweed, palmer
In short: as §1

[4] = test system: beggarticks (hairy beggarticks, Bidens pilosa); experiment: Test F pre-/postemergence: beggarticks
In short: as §1

kochia (Kochia scoparia) = experiment: Test D pre-/postemergence: kochia
In short: as §2

[5] = test system: panicum, fall (fall panicum Panicum dichotomiflorum); experiment: Test F pre-/postemergence: panicum, fall
In short: as §1

[6] = test system: blackgrass (Alopecurus myosuroides); experiment: Test D pre-/postemergence: blackgrass
In short: as §2

[7] = test system: barley, winter (winter barley, Hordeum vulgare); experiment: Test D pre-/postemergence: barley, winter
In short: as §2

corn (Zea mays) = experiment: Test F pre-/postemergence: corn
In short: as §1

[8] = test system: surinam grass (Brachiaria decumbens); experiment: Test F pre-/postemergence: surinam grass; conditions: Preemergence
In short: as §1

[9] = 16 g ai/ha, scale 0 to 100, 0 no effect, 100 complete control
[10] = 31 g ai/ha, scale 0 to 100, 0 no effect, 100 complete control
[11] = Postemergence, 31 g ai/ha, scale 0 to 100 (0 no effect, 100 complete control)
[12] = Postemergence, 62 g ai/ha, scale 0 to 100 (0 no effect, 100 complete control)
[13] = Postemergence, 125 g ai/ha, scale 0 to 100, 0 no effect, 100 complete control
[14] = Postemergence, 16 g ai/ha, scale 0 to 100
[15] = Preemergence, 16 g ai/ha, scale 0 to 100, 0 no effect, 100 complete control
[16] = Preemergence, 31 g ai/ha, scale 0 to 100, 0 no effect, 100 complete control
[17] = Preemergence, 62 g ai/ha, scale 0 to 100
[18] = Preemergence, 125 g ai/ha, scale 0 to 100
[19] = Preemergence, 250 g ai/ha, scale 0 to 100
[20] = 8 g ai/ha, scale 0 to 100, 0 no effect, 100 complete control
[21] = Postemergence, 8 g ai/ha, scale 0 to 100
[22] = Postemergence, 31 g ai/ha, scale 0 to 100
[23] = Postemergence, 62 g ai/ha, scale 0 to 100
[24] = Postemergence, 125 g ai/ha, scale 0 to 100
[25] = Preemergence, 8 g ai/ha, scale 0 to 100, 0 no effect, 100 complete control

Cc1nn(-c2ccc(C(F)(F)F)c(F)c2)nc1Oc1ccnc(C(F)(F)F)c1 [Compound 148]
Plant response rating, Goosegrass [1, 9]: 25 | Plant response rating, Goosegrass [1, 10]: 98 | Plant response rating, Goosegrass ([1]; 62 g ai/ha, scale 0 to 100): 100 | Plant response rating, Goosegrass ([1]; 125 g ai/ha, scale 0 to 100): 100 | Plant response rating, Goosegrass ([1]; 250 g ai/ha, scale 0 to 100): 100 | Plant response rating: Deadnettle [2, 11]: 65 | Plant response rating: Deadnettle [2, 12]: 100 | Plant response rating: Deadnettle [2, 13]: 100 | Plant response rating, Deadnettle [2, 14]: 70 | Plant response rating, Deadnettle [2, 15]: 10 | Plant response rating, Deadnettle [2, 16]: 45 | Plant response rating, Deadnettle [2, 17]: 100 | Plant response rating, Deadnettle [2, 18]: 100 | Plant response rating, Pigweed, Palmer [3, 15]: 0 | Plant response rating, Pigweed, Palmer [3, 16]: 90 | Plant response rating, Pigweed, Palmer [3, 18]: 100 | Plant response rating, Pigweed, Palmer [3, 19]: 100 | Plant response rating, Beggarticks [4, 15]: 0 | Plant response rating, Beggarticks [4, 16]: 0 | Plant response rating, Beggarticks [4, 17]: 0 | Plant response rating, Beggarticks [4, 18]: 0 | Plant response rating, Beggarticks [4, 19]: 0 | Plant response rating: Kochia (kochia (Kochia scoparia); [11]): 85 | Plant response rating: Kochia (kochia (Kochia scoparia); [12]): 85 | Plant response rating: Kochia (kochia (Kochia scoparia); [13]): 85 | Plant response rating, Kochia (kochia (Kochia scoparia); [14]): 75 | Plant response rating, Kochia (kochia (Kochia scoparia); [15]): 10 | Plant response rating, Kochia (kochia (Kochia scoparia); [16]): 20 | Plant response rating, Kochia (kochia (Kochia scoparia); [17]): 10 | Plant response rating, Kochia (kochia (Kochia scoparia); [18]): 75 | Plant response rating, Panicum, Fall [5, 15]: 75 | Plant response rating, Panicum, Fall [5, 16]: 85 | Plant response rating, Panicum, Fall [5, 18]: 100 | Plant response rating, Panicum, Fall [5, 19]: 100 | Plant response rating: Blackgrass [6, 11]: 15 | Plant response rating: Blackgrass [6, 12]: 30 | Plant response rating: Blackgrass [6, 13]: 65 | Plant response rating, Blackgrass [6, 14]: 10 | Plant response rating, Blackgrass [6, 15]: 0 | Plant response rating, Blackgrass [6, 16]: 10 | Plant response rating, Blackgrass [6, 17]: 5 | Plant response rating, Blackgrass [6, 18]: 5 | Plant response rating: Barley, Winter [7, 11]: 20 | Plant response rating: Barley, Winter [7, 12]: 25 | Plant response rating: Barley, Winter [7, 13]: 30 | Plant response rating, Barley, Winter [7, 14]: 10 | Plant response rating, Barley, Winter [7, 15]: 0 | Plant response rating, Barley, Winter [7, 16]: 0 | Plant response rating, Barley, Winter [7, 17]: 5 | Plant response rating, Barley, Winter [7, 18]: 5 | Plant response rating, Corn (corn (Zea mays); [15]): 0 | Plant response rating, Corn (corn (Zea mays); [16]): 0 | Plant response rating, Corn (corn (Zea mays); [17]): 0 | Plant response rating, Corn (corn (Zea mays); [18]): 0 | Plant response rating, Corn (corn (Zea mays); [19]): 5 | Plant response rating, Surinam Grass [8, 9]: 25 | Plant response rating, Surinam Grass [8, 10]: 40 | Plant response rating, Surinam Grass ([8]; 125 g ai/ha, scale 0 to 100): 98 | Plant response rating, Surinam Grass ([8]; 250 g ai/ha, scale 0 to 100): 98

CCc1nn(-c2ccc(C(F)(F)F)cc2)nc1Cc1ccnc(C(F)(F)F)c1 [Compound 155]
Plant response rating, Goosegrass ([1]; 62 g ai/ha, scale 0 to 100): 100 | Plant response rating, Goosegrass ([1]; 125 g ai/ha, scale 0 to 100): 100 | Plant response rating, Goosegrass ([1]; 250 g ai/ha, scale 0 to 100): 100 | Plant response rating: Deadnettle [2, 11]: 75 | Plant response rating: Deadnettle [2, 12]: 90 | Plant response rating: Deadnettle [2, 13]: 100 | Plant response rating, Deadnettle [2, 14]: 75 | Plant response rating, Deadnettle [2, 15]: 5 | Plant response rating, Deadnettle [2, 16]: 5 | Plant response rating, Deadnettle [2, 17]: 80 | Plant response rating, Deadnettle [2, 18]: 95 | Plant response rating, Pigweed, Palmer [3, 18]: 100 | Plant response rating, Pigweed, Palmer [3, 19]: 100 | Plant response rating, Beggarticks [4, 17]: 40 | Plant response rating, Beggarticks [4, 18]: 70 | Plant response rating, Beggarticks [4, 19]: 80 | Plant response rating: Kochia (kochia (Kochia scoparia); [11]): 80 | Plant response rating: Kochia (kochia (Kochia scoparia); [12]): 85 | Plant response rating: Kochia (kochia (Kochia scoparia); [13]): 85 | Plant response rating, Kochia (kochia (Kochia scoparia); [14]): 70 | Plant response rating, Kochia (kochia (Kochia scoparia); [15]): 30 | Plant response rating, Kochia (kochia (Kochia scoparia); [16]): 60 | Plant response rating, Kochia (kochia (Kochia scoparia); [17]): 65 | Plant response rating, Kochia (kochia (Kochia scoparia); [18]): 75 | Plant response rating, Panicum, Fall [5, 18]: 100 | Plant response rating, Panicum, Fall [5, 19]: 100 | Plant response rating: Blackgrass [6, 11]: 50 | Plant response rating: Blackgrass [6, 12]: 60 | Plant response rating: Blackgrass [6, 13]: 85 | Plant response rating, Blackgrass [6, 14]: 5 | Plant response rating, Blackgrass [6, 15]: 5 | Plant response rating, Blackgrass [6, 16]: 10 | Plant response rating, Blackgrass [6, 17]: 20 | Plant response rating, Blackgrass [6, 18]: 70 | Plant response rating: Barley, Winter [7, 11]: 20 | Plant response rating: Barley, Winter [7, 12]: 25 | Plant response rating: Barley, Winter [7, 13]: 35 | Plant response rating, Barley, Winter [7, 14]: 15 | Plant response rating, Barley, Winter [7, 15]: 5 | Plant response rating, Barley, Winter [7, 16]: 0 | Plant response rating, Barley, Winter [7, 17]: 5 | Plant response rating, Barley, Winter [7, 18]: 10 | Plant response rating, Corn (corn (Zea mays); [17]): 10 | Plant response rating, Corn (corn (Zea mays); [18]): 15 | Plant response rating, Corn (corn (Zea mays); [19]): 15 | Plant response rating, Surinam Grass ([8]; 125 g ai/ha, scale 0 to 100): 90 | Plant response rating, Surinam Grass ([8]; 250 g ai/ha, scale 0 to 100): 90

CCOc1nn(-c2ccc(F)cc2)nc1Cc1ccnc(C(F)(F)F)c1 [Compound 196, 4-[[5-ethoxy-2-(4-fluorophenyl)-2H-1,2,3-triazol-4-yl]methyl]-2-(trifluoromethyl)pyridine]
Plant response rating, Goosegrass [1, 20]: 40 | Plant response rating, Goosegrass [1, 9]: 60 | Plant response rating, Goosegrass [1, 10]: 75 | Plant response rating, Goosegrass ([1]; 62 g ai/ha, scale 0 to 100): 100 | Plant response rating, Goosegrass ([1]; 125 g ai/ha, scale 0 to 100): 100 | Plant response rating: Deadnettle [2, 11]: 100 | Plant response rating: Deadnettle [2, 12]: 100 | Plant response rating: Deadnettle [2, 13]: 100 | Plant response rating, Deadnettle [2, 14]: 85 | Plant response rating, Deadnettle [2, 15]: 10 | Plant response rating, Deadnettle [2, 16]: 40 | Plant response rating, Deadnettle [2, 17]: 100 | Plant response rating, Deadnettle [2, 18]: 100 | Plant response rating, Pigweed, Palmer [3, 21]: 95 | Plant response rating, Pigweed, Palmer [3, 14]: 100 | Plant response rating, Pigweed, Palmer [3, 22]: 100 | Plant response rating, Pigweed, Palmer [3, 23]: 100 | Plant response rating, Pigweed, Palmer [3, 24]: 100 | Plant response rating, Beggarticks [4, 21]: 50 | Plant response rating, Beggarticks [4, 14]: 60 | Plant response rating, Beggarticks [4, 22]: 60 | Plant response rating, Beggarticks [4, 23]: 60 | Plant response rating, Beggarticks [4, 24]: 70 | Plant response rating, Beggarticks [4, 25]: 0 | Plant response rating, Beggarticks [4, 15]: 50 | Plant response rating, Beggarticks [4, 16]: 50 | Plant response rating, Beggarticks [4, 17]: 50 | Plant response rating, Beggarticks [4, 18]: 65 | Plant response rating: Kochia (kochia (Kochia scoparia); [11]): 85 | Plant response rating: Kochia (kochia (Kochia scoparia); [12]): 90 | Plant response rating: Kochia (kochia (Kochia scoparia); [13]): 90 | Plant response rating, Kochia (kochia (Kochia scoparia); [14]): 70 | Plant response rating, Kochia (kochia (Kochia scoparia); [15]): 35 | Plant response rating, Kochia (kochia (Kochia scoparia); [16]): 70 | Plant response rating, Kochia (kochia (Kochia scoparia); [17]): 100 | Plant response rating, Kochia (kochia (Kochia scoparia); [18]): 100 | Plant response rating, Panicum, Fall [5, 21]: 20 | Plant response rating, Panicum, Fall [5, 14]: 40 | Plant response rating, Panicum, Fall [5, 22]: 80 | Plant response rating, Panicum, Fall [5, 23]: 85 | Plant response rating, Panicum, Fall [5, 24]: 85 | Plant response rating, Panicum, Fall [5, 25]: 25 | Plant response rating, Panicum, Fall [5, 16]: 98 | Plant response rating, Panicum, Fall [5, 18]: 100 | Plant response rating: Blackgrass [6, 11]: 65 | Plant response rating: Blackgrass [6, 12]: 85 | Plant response rating: Blackgrass [6, 13]: 80 | Plant response rating, Blackgrass [6, 14]: 15 | Plant response rating, Blackgrass [6, 15]: 10 | Plant response rating, Blackgrass [6, 16]: 20 | Plant response rating, Blackgrass [6, 17]: 100 | Plant response rating, Blackgrass [6, 18]: 100 | Plant response rating: Barley, Winter [7, 11]: 20 | Plant response rating: Barley, Winter [7, 12]: 35 | Plant response rating: Barley, Winter [7, 13]: 40 | Plant response rating, Barley, Winter [7, 14]: 15 | Plant response rating, Barley, Winter [7, 15]: 5 | Plant response rating, Barley, Winter [7, 16]: 10 | Plant response rating, Barley, Winter [7, 17]: 15 | Plant response rating, Barley, Winter [7, 18]: 40 | Plant response rating, Corn (corn (Zea mays); [21]): 15 | Plant response rating, Corn (corn (Zea mays); [14]): 15 | Plant response rating, Corn (corn (Zea mays); [22]): 20 | Plant response rating, Corn (corn (Zea mays); [23]): 20 | Plant response rating, Corn (corn (Zea mays); [24]): 25 | Plant response rating, Corn (corn (Zea mays); [25]): 0 | Plant response rating, Corn (corn (Zea mays); [15]): 0 | Plant response rating, Corn (corn (Zea mays); [16]): 0 | Plant response rating, Corn (corn (Zea mays); [17]): 5 | Plant response rating, Corn (corn (Zea mays); [18]): 30 | Plant response rating, Surinam Grass [8, 20]: 0 | Plant response rating, Surinam Grass [8, 10]: 15 | Plant response rating, Surinam Grass ([8]; 125 g ai/ha, scale 0 to 100): 100
